From EP4656642A1, “ESTROGEN RECEPTOR PROTEOLYSIS TARGETING CHIMERA COMPOUND AND USE THEREOF” (GAN & LEE PHARM CO., LTD, priority 2023, dated 2024)

What was measured:
Assay type in all cases: cell-based
T-47D cells = test: Inhibition of cell proliferation in T-47D cells (CCK-8, 6 days); details: 6 days of treatment, Table 3
Excerpt: Test Example 2: Inhibitory effect of the PROTAC compounds provided in the present disclosure on cell proliferation in T-47D cells (source ATCC)
The complete medium required for T-47D cells was 1640 ( ATCC, Product number: A10491-01) basal medium containing 10% fetal bovine serum. T-47D cells were inoculated in 96-well plates at a density of 3,000 cells/well, and different concentrations of the PROTAC compounds 1-55 provided in the examples of the present disclosure and a positive control sample ARV-471 (source: Innochem) were prepared to treat cells, and the cells were treated at 37°C in a cell culture incubator with 5% CO2 for 6 days. Cell viability was detected using a CCK-8 kit (Beyotime, Product number: C0040) according to the manufacturer's instructions. […] Table 2 IC50 values for inhibition of the proliferation of T-47D cells by the PROTAC compounds provided by the present disclosure and the positive control sample

MCF-7 cells = test: Inhibition of cell proliferation of MCF-7 cells (CCK-8, 9 days); details: treated for 9 days, CCK-8 kit (Table 6)
In short: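 Read-out was CCK-8 viability after 9-day continuous exposure (37°C, 5% CO2) of MCF-7 cells plated at 800/well in 10% FBS DMEM across several compound concentrations. Values are proliferation IC50s.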

ERα [1] = molecular target: T1, ERα (Homo sapiens, UniProt P03372); test: Degradation of ERα in MCF-7 cells (immunoblotting, 4 h)
T1 sequence (P03372 1-595): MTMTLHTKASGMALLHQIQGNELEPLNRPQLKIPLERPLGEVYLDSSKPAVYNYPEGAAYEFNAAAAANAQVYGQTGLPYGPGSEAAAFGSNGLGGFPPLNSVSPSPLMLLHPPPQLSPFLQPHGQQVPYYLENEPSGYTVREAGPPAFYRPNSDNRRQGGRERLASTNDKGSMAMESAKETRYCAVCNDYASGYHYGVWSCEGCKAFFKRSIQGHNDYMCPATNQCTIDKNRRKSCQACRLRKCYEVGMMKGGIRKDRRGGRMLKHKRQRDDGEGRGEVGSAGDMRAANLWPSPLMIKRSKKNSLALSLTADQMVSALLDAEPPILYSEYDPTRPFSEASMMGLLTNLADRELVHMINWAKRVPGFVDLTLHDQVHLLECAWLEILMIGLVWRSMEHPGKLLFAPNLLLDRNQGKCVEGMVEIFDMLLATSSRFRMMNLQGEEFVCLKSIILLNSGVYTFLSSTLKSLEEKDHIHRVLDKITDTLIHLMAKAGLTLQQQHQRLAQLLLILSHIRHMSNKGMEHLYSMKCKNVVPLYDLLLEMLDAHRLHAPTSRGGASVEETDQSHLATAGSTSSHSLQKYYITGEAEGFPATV
In short: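 Degradation rate reflects ERα band intensity, corrected to an internal reference protein, relative to control. Values come from Western blotting of lysates from MCF-7 cells exposed 4 h at 37°C to compounds at final concentrations of 0.15-1000nM.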

ERα [2] = molecular target: T1, ERα; test: Degradation of ERα in T-47D cells (immunoblotting, 4 h); design: host or cells: T-47D
In short: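 ERα protein levels were assessed by immunoblot of RIPA lysates (with protease inhibitor) after 4 h exposure at 37°C. Compound was added in DMSO to T-47D cells at final concentrations of 0.15-1000 nM.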

Row | SMILES | IC50 (T-47D cells) | IC50 (MCF-7 cells) | Degradation rate (%) of ERα in MCF-7 cells (ERα [1]; 1nM compound) | Degradation rate (%) of ERα in MCF-7 cells (ERα [1]; 10nM compound) | Degradation rate (%) of ERα in T-47D cells (ERα [2]; 1nM compound) | Degradation rate (%) of ERα in T-47D cells (ERα [2]; 10nM compound)
1 | O=C1CCC(N2Cc3c(ccc4c3OC3(CC4)CCN(C4CCN(C5CN(c6ccc([C@@H]7c8ccc(O)cc8CC[C@@H]7c7ccccc7)cc6)C5)CC4)CC3)C2=O)C(=O)N1 (stereo partly drawn) [A60] | 18.3 nM | 825 nM | -31% | -14% | 11% | -1%
2 | O=C1CCC(N2Cc3c(ccc4c3OCC43CCN(C4CCN(C5CN(c6ccc([C@@H]7c8ccc(O)cc8CC[C@@H]7c7ccccc7)cc6)C5)CC4)CC3)C2=O)C(=O)N1 (stereo partly drawn) [A61] | 27 nM | 837 nM | -4% | -19% | 9% | -2%
3 | O=C1CCC(N2Cc3cc4c(cc3C2=O)CCC2(CN(C(=O)CN3CCC5(CC3)CCN(c3ccc([C@@H]6c7ccc(O)cc7CC[C@@H]6c6ccccc6)cc3)CC5)C2)O4)C(=O)N1 (stereo partly drawn) [A69] | 3.53 nM | 90.8 nM | 21% | 35% | 19% | 67%
4 | O=C1CCC(N2Cc3c(ccc4c3OCC43CCN(C4CCN(C(=O)C5CC6(CCN(c7ccc([C@@H]8c9ccc(O)cc9CC[C@@H]8c8ccccc8)cc7)CC6)C5)CC4)CC3)C2=O)C(=O)N1 (stereo partly drawn) [A85] | 1.12 nM | 9880 nM | 45% | 65% | 68% | 88%
5 | O=C1CCC(N2Cc3c(ccc4c3OCC43CCN(C(=O)C4CC5(CCN(c6ccc([C@@H]7c8ccc(O)cc8CC[C@@H]7c7ccccc7)cc6)CC5)C4)CC3)C2=O)C(=O)N1 (stereo partly drawn) [A86] | 1.64 nM | 85 nM | 5% | 32% | 46% | 74%
6 | CC(C(=O)N1CCC2(CC1)COc1c2ccc2c1CN(C1CCC(=O)NC1=O)C2=O)N1CCC2(CCN(c3ccc([C@@H]4c5ccc(O)cc5CC[C@@H]4c4ccccc4)cc3)CC2)C1 (stereo partly drawn) [A88] | 1.18 nM | 66.8 nM | 57% | 54% | 65% | 72%
7 | O=C1CCC(N2Cc3c(ccc4c3OCC43CCN(C4CCN(C(=O)C5(F)CCN(c6ccc([C@@H]7c8ccc(O)cc8CC[C@@H]7c7ccccc7)cc6)CC5)CC4)CC3)C2=O)C(=O)N1 (stereo partly drawn) [A89] | 2.16 nM | 110 nM | 48% | 72% | 40% | 70%
8 | C[C@@H]1CC2(CCN(c3ccc([C@@H]4c5ccc(O)cc5CC[C@@H]4c4ccccc4)cc3)CC2)CN1CC(=O)N1CCC2(CC1)COc1c2ccc2c1CN(C1CCC(=O)NC1=O)C2=O (stereo partly drawn) [A90] | 1.78 nM | 52.8 nM | 50% | 72% | 42% | 79%
9 | CC(C)(C(=O)N1CCC2(CC1)COc1c2ccc2c1CN(C1CCC(=O)NC1=O)C2=O)N1CCC2(CCN(c3ccc([C@@H]4c5ccc(O)cc5CC[C@@H]4c4ccccc4)cc3)CC2)C1 (stereo partly drawn) [A91] | 1.11 nM | 325 nM | 2% | 33% | -1% | 49%
10 | O=C1CCC(N2Cc3ccc4c(c3C2=O)OCC42CCN(C(=O)CN3CCC4(CCN(c5ccc([C@@H]6c7ccc(O)cc7CC[C@@H]6c6ccccc6)cc5)CC4)C3)CC2)C(=O)N1 (stereo partly drawn) [A92] | 1.34 nM | 11.6 nM | 36% | 66% | 48% | 66%
11 | O=C1CCC(N2Cc3ccc4c(c3C2=O)OCC42CCN(C3CCN(C(=O)C4(F)CCN(c5ccc([C@@H]6c7ccc(O)cc7CC[C@@H]6c6ccccc6)cc5)CC4)CC3F)CC2)C(=O)N1 (stereo partly drawn) [A93] | 1.85 nM | 10.5 nM | 31% | 69% | 26% | 71%
12 | O=C1CCC(N2Cc3ccc4c(c3C2=O)OCC42CCN(C3CCN(C(=O)C4CCN(c5ccc([C@@H]6c7ccc(O)cc7CC[C@@H]6c6ccccc6)cc5)CC4)CC3)CC2)C(=O)N1 (stereo partly drawn) [A94] | 2.74 nM | 45 nM | 22% | 48% | 54% | 80%
13 | CCC(C(=O)N1CCC2(CC1)COc1c2ccc2c1CN(C1CCC(=O)NC1=O)C2=O)N1CCC2(CCN(c3ccc([C@@H]4c5ccc(O)cc5CC[C@@H]4c4ccccc4)cc3)CC2)C1 (stereo partly drawn) [A95] | 1.49 nM | 201 nM | 42% | 48% | 52% | 68%
14 | C[C@@H]1CN(C(=O)C2(F)CCN(c3ccc([C@@H]4c5ccc(O)cc5CC[C@@H]4c4ccccc4)cc3)CC2)CCC1N1CCC2(CC1)COc1c2ccc2c1CN(C1CCC(=O)NC1=O)C2=O (stereo partly drawn) [A96] | 3.38 nM | 11 nM | 40% | 66% | 31% | 78%
15 | C[C@H]1CN(C(=O)C2(F)CCN(c3ccc([C@@H]4c5ccc(O)cc5CC[C@@H]4c4ccccc4)cc3)CC2)CCC1N1CCC2(CC1)COc1c2ccc2c1CN(C1CCC(=O)NC1=O)C2=O (stereo partly drawn) [A97] | 2.33 nM | 217 nM | 50% | 75% | 45% | 78%
16 | O=C1CCC(N2Cc3c(ccc4c3OCC43CCN(C4CCN(C5CC6(CCN(c7ccc([C@@H]8c9ccc(O)cc9CC[C@@H]8c8ccccc8)cc7)CC6)C5)[C@@H](C(=O)N5CC(F)(F)C5)C4)CC3)C2=O)C(=O)N1 (stereo partly drawn) [A98] | 1.19 nM | 5.12 nM | 48% | 90% | 51% | 83%
17 | O=C1CCC(N2Cc3c(ccc4c3OCC43CCN(C4CCN(C5CC6(CCN(c7ccc([C@@H]8c9ccc(O)cc9CC[C@@H]8c8ccccc8)cc7)CC6)C5)[C@@H](C(=O)N5CCC(F)(F)CC5)C4)CC3)C2=O)C(=O)N1 (stereo partly drawn) [A99] | 2.07 nM | 4.19 nM | 35% | 77% | 51% | 82%
18 | O=C1CCC(N2Cc3c(ccc4c3OCC43CCN(CC4CCN(C(=O)C5CCN(c6ccc([C@@H]7c8ccc(O)cc8CC[C@@H]7c7ccccc7)cc6)CC5)CC4)CC3)C2=O)C(=O)N1 (stereo partly drawn) [A100] | 0.84 nM | 2.27 nM | 65% | 73% | 77% | 84%
19 | O=C1CCC(N2Cc3c(ccc4c3OCC43CCN(C(=O)C4CCC(N5CCC(C#Cc6ccc([C@@H]7c8ccc(O)cc8CC[C@@H]7c7ccccc7)cc6)CC5)CC4)CC3)C2=O)C(=O)N1 (stereo partly drawn) [A101] | 0.91 nM | 850 nM | 52% | 61% | 44% | 45%
